Assay results: PMC2845915 (Bioconjugate chemistry, 2010)

Tests used:
[1] = target: human A2AAR (Homo sapiens, UniProt P29274); settings: read-out: Affinity (Ki) A2 (A2A), [3H]CGS21680, HEK293, ref Tosh et al. ([15], [21]) and Melman et al. ([14]); cited from earlier work
[2] = target: T1, human A1AR (Homo sapiens, UniProt P30542); settings: at 10 μM, ref Tosh et al. ([15], [21]) and Melman et al. ([14]); cited from earlier work
T1 sequence (P30542 1-326): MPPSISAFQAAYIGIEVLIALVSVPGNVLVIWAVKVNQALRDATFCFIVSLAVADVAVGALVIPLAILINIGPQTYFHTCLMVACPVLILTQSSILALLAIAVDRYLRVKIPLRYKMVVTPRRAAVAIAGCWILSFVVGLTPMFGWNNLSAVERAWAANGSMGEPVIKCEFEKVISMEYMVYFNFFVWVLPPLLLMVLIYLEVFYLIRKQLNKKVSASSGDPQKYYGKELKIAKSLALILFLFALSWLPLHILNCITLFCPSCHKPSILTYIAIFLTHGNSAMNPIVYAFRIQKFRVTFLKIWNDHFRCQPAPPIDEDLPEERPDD

[3] = target: T2, human A3AR (Homo sapiens, UniProt P0DMS8); experiment: Radioligand binding at human A3AR; settings: human ARs
T2 sequence (P0DMS8 1-318): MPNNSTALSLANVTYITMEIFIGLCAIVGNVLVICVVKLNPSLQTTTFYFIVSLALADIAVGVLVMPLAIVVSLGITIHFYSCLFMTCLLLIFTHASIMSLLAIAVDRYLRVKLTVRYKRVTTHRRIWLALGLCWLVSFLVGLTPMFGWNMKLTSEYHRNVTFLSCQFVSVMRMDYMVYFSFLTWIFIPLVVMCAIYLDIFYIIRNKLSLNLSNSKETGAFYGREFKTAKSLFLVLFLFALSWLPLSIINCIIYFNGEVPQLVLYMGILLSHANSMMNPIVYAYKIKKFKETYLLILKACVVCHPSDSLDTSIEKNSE

[4] = target: T2, human A3AR; settings: cited from earlier work
[5] = target: T3, human P2Y14 receptor (Homo sapiens, UniProt Q15391); settings: read-out: Potency at the P2Y14 receptor in the same assay; C6 cells expressing the human P2Y14 receptor; cited from earlier work
T3 sequence (Q15391 1-338): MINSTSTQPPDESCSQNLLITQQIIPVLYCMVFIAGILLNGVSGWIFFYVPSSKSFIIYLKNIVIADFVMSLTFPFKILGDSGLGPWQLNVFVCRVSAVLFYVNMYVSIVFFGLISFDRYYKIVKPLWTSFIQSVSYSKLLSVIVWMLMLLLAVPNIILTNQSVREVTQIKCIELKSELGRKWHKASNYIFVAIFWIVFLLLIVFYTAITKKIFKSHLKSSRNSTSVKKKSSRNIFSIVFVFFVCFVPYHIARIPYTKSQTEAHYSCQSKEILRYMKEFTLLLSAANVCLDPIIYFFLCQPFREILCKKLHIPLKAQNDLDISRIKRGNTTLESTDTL

human A2AAR, sequence (P29274 whole entry): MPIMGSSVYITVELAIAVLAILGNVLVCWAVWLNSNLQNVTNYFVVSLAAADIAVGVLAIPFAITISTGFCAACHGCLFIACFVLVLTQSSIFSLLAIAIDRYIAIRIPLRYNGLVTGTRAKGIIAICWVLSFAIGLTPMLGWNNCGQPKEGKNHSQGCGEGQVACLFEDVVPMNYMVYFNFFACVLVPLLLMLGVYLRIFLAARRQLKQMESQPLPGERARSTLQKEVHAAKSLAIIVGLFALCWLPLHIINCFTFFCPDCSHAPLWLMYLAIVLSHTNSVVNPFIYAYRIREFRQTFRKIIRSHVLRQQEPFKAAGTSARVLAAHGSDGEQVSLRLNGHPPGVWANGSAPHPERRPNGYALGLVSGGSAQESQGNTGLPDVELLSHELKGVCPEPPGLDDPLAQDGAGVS

Selectivity for the A3AR in comparison to the A1AR [3] [fold] | SMILES | Ki [1] [µM] | % inhibition of radioligand binding A1 [2] | Selectivity for the A3AR [4] | EC50 [5] [µM]
– | CNC(=O)[C@@]12C[C@@H]1[C@@H](n1cnc3c(NCc4cccc(Cl)c4)nc(Cl)nc31)[C@H](O)[C@@H]2O [Compound 2] | 2.3 ± 0.1 | – | – | –
– | C#CCCCCC#Cc1nc(NCc2cccc(Cl)c2)c2ncn([C@H]3[C@H](O)[C@H](O)[C@]4(C(=O)NC)C[C@H]34)c2n1 [Compound 3a] | – | (31±2%) at 10 μM | – | –
> 500 | CNC(=O)[C@@]12C[C@@H]1[C@@H](n1cnc3c(NCc4cccc(Cl)c4)nc(C#CCCCCc4cn(CCNC(C)=O)nn4)nc31)[C@H](O)[C@@H]2O [Compound 4a] | 2.44 ± 0.32 | (12±4%) at 10 μM | at least 100 fold | –
– | O=C(O)[C@H]1O[C@H](OP(=O)(O)OP(=O)(O)OC[C@H]2O[C@@H](n3ccc(=O)[nH]c3=O)[C@H](O)[C@@H]2O)[C@H](O)[C@@H](O)[C@@H]1O [UDPGA, uridine-5′-diphosphoglucuronic acid] | – | – | – | 0.2 to 0.3
